Values after ≈ are worked out from the molar mass of the structure shown.
What was measured:
[1] = test system: Rattus norvegicus; experiment: Toxicity in female Sprague-Dawley rat assessed as increase in formation of foamy macrophages in lungs at 75 mg/kg/day, po administered via gavage for 1 month; type: organism-based; details: in vivo
[2] = Cmax in Swiss mouse at 10 mg/kg, po administered as bolus dose by LC-MS/MS analysis; type: ADME, organism-based; design: dose 10 mg/kg, route oral; details: in vivo
[3] = Fraction unbound in rat plasma at 5 uM after 4.5 hrs by HPLC-MS/MS method based rapid equilibrium dialysis; type: ADME, cell-free
[4] = Fraction unbound in mouse plasma at 5 uM after 4.5 hrs by HPLC-MS/MS method based rapid equilibrium dialysis; type: ADME, cell-free
[5] = Oral bioavailability in Swiss mouse at 10 mg/kg administered as bolus dose by LC-MS/MS analysis; type: ADME, organism-based; details: in vivo
[6] = test system: Canis familiaris; experiment: Half life in Beagle dog at 1 mg/kg, iv administered as bolus dose by LC-MS/MS analysis; type: ADME, organism-based, Canis lupus familiaris; details: in vivo
[7] = test system: HepG2; experiment: Cytotoxicity against human HepG2 cells assessed as effect on cell health indicators after 72 hrs by automated fluorescence microscopy based high content screening based assay; type: ADME; details: hepg2, 72 h
[8] = Fraction unbound in rat brain at 5 uM after 5 hrs by HPLC-MS/MS method based rapid equilibrium dialysis; type: ADME, tissue-based
[9] = test system: Cavia porcellus; experiment: Cardiotoxicity in anesthetized guinea pigs assessed as QTcB prolongation at plasma concentration of 11500 ng/ml dosed up to 10 mg/kg, iv administered over a period of 5 min at 15 min interval by ECG analysis (reference value: 7%); type: toxicity, organism-based; details: guinea pig, in vivo
[10] = Cmax in male Sprague-Dawley rat at 75 mg/kg, po measured after 1 month repeated dosing by LC-MS/MS analysis; type: ADME, organism-based; design: dose 75 mg/kg, route oral; details: in vivo
[11] = test system: Canis familiaris; experiment: Toxicity in beagle dog assessed as induction of tremors at 70 to 250 mg/kg/day, po qd for 1 week; type: organism-based, Canis lupus familiaris; details: in vivo, 168 h
[12] = Cmax in Sprague-Dawley rat at 10 mg/kg, po administered as bolus dose by LC-MS/MS analysis; type: ADME, organism-based; design: dose 10 mg/kg, route oral; details: in vivo
[13] = Tmax in Sprague-Dawley rat at 10 mg/kg, po administered as bolus dose by LC-MS/MS analysis; type: ADME, organism-based; details: in vivo
[14] = test system: Canis familiaris; experiment: Toxicity in male beagle dog assessed as reduction in RBC parameters at 250 mg/kg/day, po qd for 1 month; type: organism-based, Canis lupus familiaris; details: in vivo
[15] = Cmax in Beagle dog at 10 mg/kg, po administered as bolus dose by LC-MS/MS analysis; type: ADME, organism-based, Canis lupus familiaris; design: dose 10 mg/kg, route oral; details: in vivo
[16] = Tmax in Beagle dog at 10 mg/kg, po administered as bolus dose by LC-MS/MS analysis; type: ADME, organism-based, Canis lupus familiaris; details: in vivo
[17] = test system: Canis familiaris; experiment: Toxicity in male beagle dog assessed as induction of pigmentation at 20 to 250 mg/kg/day, po qd for 1 month; type: organism-based, Canis lupus familiaris; details: in vivo
[18] = test system: Rattus norvegicus; experiment: Toxicity in Sprague-Dawley rat assessed as effect on body weight at 225 mg/kg/day, po administered via gavage for 1 month; type: organism-based; details: in vivo
[19] = Cmax in male Beagle dog at 70 mg/kg, po measured after 1 month repeated dosing by LC-MS/MS analysis; details: in vivo
[20] = test system: Canis familiaris; experiment: Toxicity in male beagle dog at 20 to 250 mg/kg/day, po qd for 1 month followed by 1 month recovery period; type: organism-based, Canis lupus familiaris; details: in vivo
[21] = test system: Rattus norvegicus; experiment: Toxicity in Sprague-Dawley rat assessed as phospholipidosis at 225 mg/kg/day, po administered via gavage for 1 month followed by 1 month recovery period; type: organism-based; details: in vivo
[22] = test system: Canis familiaris; experiment: Toxicity in Beagle dog assessed as drug tolerability at 0.63 to 20 mg/kg, po qd for 1 day; type: organism-based, Canis lupus familiaris; details: in vivo, 24 h
[23] = Safety index, ratio of NOAEL for cardiotoxicity in anesthetized guinea pigs assessed as free drug level causing QTcB prolongation dosed up to 10 mg/kg, iv administered over a period of 5 min at 15 mins interval by ECG analysis to EC50 for Antialzheimer activity in po dosed Beagle dog assessed as reduction in amyloid beta (1 to 40) levels measured after 1 hr post dose by ELISA; type: toxicity, organism-based; details: guinea pig, in vivo
[24] = target: hERG (KCNH2) (Homo sapiens, UniProt Q12809); experiment: Inhibition of human ERG expressed in HEK293 cells assessed as reduction in outward potassium current at 3 uM at holding potential was -80 mV after 5 mins by patch clamp assay; type: cell-based; details: HEK293 cells that express hERG
[25] = Fraction unbound in human plasma at 5 uM after 4.5 hrs by HPLC-MS/MS method based rapid equilibrium dialysis; type: ADME, cell-free
[26] = test system: THP-1; experiment: Induction of phospholipidosis in human THP1 cells at 21 uM after […] by ethidiumbromide-based fluorescence assay relative to control; type: cell-based; details: thp-1, 21 µM
[27] = Ratio of drug level in liver to plasma of Sprague-Dawley rat at 10 mg/kg, po; type: ADME, organism-based
[28] = Toxicity in Sprague-Dawley rat administered daily via oral gavage for 1 month; type: organism-based; details: in vivo
[29] = AUC (0 to 24 hrs) in female Sprague-Dawley rat at 75 mg/kg, po measured after 1 month repeated dosing by LC-MS/MS analysis; type: ADME, organism-based; design: time < 24 hr, dose 75 mg/kg, route oral; details: in vivo
[30] = organism: Homo sapiens; experiment: Selectivity for BACE1 (unknown origin) over BACE2 (unknown origin)
[31] = test system: Canis familiaris; experiment: Antialzheimer activity in po dosed Beagle dog assessed as reduction in amyloid beta (1 to 40) levels measured after 1 hr post dose by ELISA; type: functional, organism-based, Canis lupus familiaris
[32] = test system: Canis familiaris; experiment: Toxicity in Beagle dog assessed as drug tolerability up to 20 mg/kg, po; type: organism-based, Canis lupus familiaris; details: in vivo
[33] = test system: Canis familiaris; experiment: Toxicity in beagle dog assessed as induction of ataxia at 70 to 250 mg/kg/day, po qd for 1 week; type: organism-based, Canis lupus familiaris; details: in vivo, 168 h
[34] = Ratio of drug level in lung to plasma of Sprague-Dawley rat at 10 mg/kg, po; type: ADME, organism-based
[35] = AUC (0 to 24 hrs) in male Sprague-Dawley rat at 75 mg/kg, po measured after 1 month repeated dosing by LC-MS/MS analysis; type: ADME, organism-based; design: time < 24 hr, dose 75 mg/kg, route oral; details: in vivo
[36] = test system: Rattus norvegicus; experiment: Toxicity in Sprague-Dawley rat assessed as drug tolerability at 25 to 75 mg/kg/day, po measured after 1 month repeated dosing; type: organism-based; details: in vivo
[37] = test system: TK6; experiment: Genotoxicity in human TK6 cells at 80 ug/ml after 24 hrs in absence of rat liver S9 fraction by micronucleus assay; type: toxicity, cell-based; details: tk6, 24 h
[38] = test system: Canis familiaris; experiment: Toxicity in Beagle dog assessed as induction of behavioural changes at 0.63 to 20 mg/kg, po qd for 1 day; type: organism-based, Canis lupus familiaris; details: in vivo, 24 h
[39] = target: Kappa-type opioid receptor (Cavia porcellus) (UniProt P41144); experiment: Inhibition of Dunkin Hartley guinea pig kappa-type opioid receptor at 10 uM after 5 mins
[40] = Half life in Sprague-Dawley rat at 2.5 mg/kg, iv administered as bolus dose by LC-MS/MS analysis; type: ADME, organism-based; details: in vivo
[41] = target: Cytochrome P450 1A2 (Homo sapiens, UniProt P05177); experiment: Reversible inhibition of recombinant human CYP1A2 by fluorescence-based assay; type: ADME
[42] = test system: Rattus norvegicus; experiment: Systemic clearance in Sprague-Dawley rat at 2.5 mg/kg, iv administered as bolus dose by LC-MS/MS analysis relative to liver blood flow; type: ADME, organism-based; details: in vivo

Sequence of Kappa-type opioid receptor (Cavia porcellus) (P41144 whole entry): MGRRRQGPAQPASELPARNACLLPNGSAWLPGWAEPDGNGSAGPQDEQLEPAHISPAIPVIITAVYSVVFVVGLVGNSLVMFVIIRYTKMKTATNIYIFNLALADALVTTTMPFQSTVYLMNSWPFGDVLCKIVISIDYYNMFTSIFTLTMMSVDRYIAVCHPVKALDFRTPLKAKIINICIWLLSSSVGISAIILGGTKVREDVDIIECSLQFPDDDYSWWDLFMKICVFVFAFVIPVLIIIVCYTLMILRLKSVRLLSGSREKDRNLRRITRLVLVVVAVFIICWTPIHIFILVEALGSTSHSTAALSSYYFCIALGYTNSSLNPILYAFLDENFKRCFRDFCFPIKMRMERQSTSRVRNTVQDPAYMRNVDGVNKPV
Sequence of Cytochrome P450 1A2 (P05177 whole entry): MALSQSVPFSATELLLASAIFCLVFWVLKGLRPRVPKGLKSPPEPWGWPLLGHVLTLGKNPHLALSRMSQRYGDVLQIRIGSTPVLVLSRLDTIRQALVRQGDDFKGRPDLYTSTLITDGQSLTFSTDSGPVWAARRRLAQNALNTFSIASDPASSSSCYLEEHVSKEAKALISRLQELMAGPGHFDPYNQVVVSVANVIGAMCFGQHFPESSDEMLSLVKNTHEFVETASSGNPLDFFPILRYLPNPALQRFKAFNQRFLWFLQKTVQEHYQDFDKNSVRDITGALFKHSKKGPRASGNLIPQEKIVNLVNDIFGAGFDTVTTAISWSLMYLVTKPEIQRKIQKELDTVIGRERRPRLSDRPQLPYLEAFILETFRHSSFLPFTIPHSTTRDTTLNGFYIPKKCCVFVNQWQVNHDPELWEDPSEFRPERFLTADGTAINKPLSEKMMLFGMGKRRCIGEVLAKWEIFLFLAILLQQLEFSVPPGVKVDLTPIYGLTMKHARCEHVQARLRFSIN
Sequence of hERG (KCNH2) (Q12809 whole entry): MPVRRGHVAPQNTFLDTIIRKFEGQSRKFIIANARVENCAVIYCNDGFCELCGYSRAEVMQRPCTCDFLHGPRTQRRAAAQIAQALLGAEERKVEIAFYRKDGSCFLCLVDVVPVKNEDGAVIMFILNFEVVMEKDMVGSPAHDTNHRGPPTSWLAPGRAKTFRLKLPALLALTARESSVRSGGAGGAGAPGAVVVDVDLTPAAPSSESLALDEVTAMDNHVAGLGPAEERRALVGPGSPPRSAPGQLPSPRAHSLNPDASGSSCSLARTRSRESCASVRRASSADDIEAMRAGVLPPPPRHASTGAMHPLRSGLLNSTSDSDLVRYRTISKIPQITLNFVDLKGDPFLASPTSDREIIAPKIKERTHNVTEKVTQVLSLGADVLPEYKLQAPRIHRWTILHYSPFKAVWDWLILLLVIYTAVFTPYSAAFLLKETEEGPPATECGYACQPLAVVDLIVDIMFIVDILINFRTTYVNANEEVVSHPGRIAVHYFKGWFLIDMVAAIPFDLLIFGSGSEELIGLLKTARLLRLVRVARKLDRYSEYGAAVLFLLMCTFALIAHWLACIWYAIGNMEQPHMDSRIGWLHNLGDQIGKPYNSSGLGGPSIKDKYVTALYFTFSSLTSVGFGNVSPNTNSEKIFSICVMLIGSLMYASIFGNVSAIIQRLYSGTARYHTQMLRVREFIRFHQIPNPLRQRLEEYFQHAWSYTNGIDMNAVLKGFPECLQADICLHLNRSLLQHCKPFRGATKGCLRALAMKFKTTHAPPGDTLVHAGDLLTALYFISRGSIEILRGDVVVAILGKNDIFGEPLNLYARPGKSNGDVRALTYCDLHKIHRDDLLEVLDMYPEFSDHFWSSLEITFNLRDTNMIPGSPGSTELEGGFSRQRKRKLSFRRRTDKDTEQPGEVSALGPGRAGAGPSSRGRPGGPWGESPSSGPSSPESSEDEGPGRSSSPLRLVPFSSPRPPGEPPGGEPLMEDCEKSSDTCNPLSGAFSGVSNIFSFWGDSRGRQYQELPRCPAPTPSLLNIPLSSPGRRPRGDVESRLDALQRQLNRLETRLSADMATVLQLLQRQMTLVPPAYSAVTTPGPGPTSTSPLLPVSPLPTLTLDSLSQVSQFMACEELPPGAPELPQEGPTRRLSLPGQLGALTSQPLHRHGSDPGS

With C[C@]1(c2cc(NC(=O)c3ccc(C#N)cn3)ccc2F)N=C(N)CO[C@H]1C(F)(F)F the Activity [1] was “Toxic”, the Cmax [2] was 333 nM and the fraction unbound at 4.5 h, 5 µM [3] was 0.26. It also gave a fraction unbound at 4.5 h, 5 µM [4] of 0.23, a bioavailability [5] of 45% and a t1/2 [6] of 12 h. The MTC [7] was 31.5 µM, the fraction unbound at 5 h, 5 µM [8] was 0.03 and the Activity [9] was 9%. The Cmax at 1 month [10] was 1490 ng/mL, the Activity [11] was “Toxic” and the Cmax [12] was 160 nM. The Tmax [13] was 2 h, the Activity [14] was “Toxic” and the Cmax [15] was 1090 nM. For the same compound, the Tmax [16] was 2 h, the Activity [17] was “Non-Toxic” and the Activity [18] was “Non-Toxic”. For the same compound, the Cmax at 1 month [19] was 1970 ng/mL, the Activity [20] was “Non-Toxic” and the Activity [21] was “Non-Toxic”. For the same compound, the Activity [22] was “Non-Toxic”, the selectivity ratio [23] was 71 and the inhibition at 5 min, 3 µM [24] was 22%. The fraction unbound at 4.5 h, 5 µM [25] was 0.36, the “fold change (FC)” value [26] was 2 and the Kp [27] was 31. The NOAEL at 1 month [28] was 75 mg/kg, the AUC at 24 h [29] was 38800 ng·h/mL and the Selectivity ratio [30] was 10. For the same compound, the fEC50 [31] was 0.065 µM, the Activity ([31]; Canis lupus familiaris) was “Dose-dependent effect” and the EC50 ([31]; Canis lupus familiaris, Beagle, 1 h) was 0.105 µg/mL (≈ 0.249 µM). For the same compound, the Activity [32] was “Non-Toxic”, the Activity [33] was “Toxic” and the Kp [34] was 169. For the same compound, the AUC at 24 h [35] was 13700 ng·h/mL, the Activity [36] was “Non-Toxic” and the Activity [37] was “Non-Toxic”. The Activity [38] was “Non-Toxic”, the inhibition [39] was 76% and the half-life [40] was 3.9 h. It also gave an IC50 [41] of over 30 µM and a CL [42] of 67%.
